This assay has as its system TNF-α and LTB4. In words: LPS and FMLP-induced TNF-α and LTB4 assays in human whole blood. It is filed as cell-based. The settings on record: LPS 1 μg/mL 24 h, then LPS and fMLP 1 μM challenge, marker (TNF-α or LTB4) not specified. As to the method:
Whole blood provides a protein and cell-rich milieu appropriate for the study of biochemical efficacy of anti-inflammatory compounds such as PDE4-selective inhibitors. […] Upon stimulation with LPS, activated monocytes express and secrete TNF-α up to 8 hours and plasma levels remain stable for 24 hours. Published studies have shown that inhibition of TNF-α by increasing intracellular cAMP via PDE4 inhibition and/or enhanced adenylyl cyclase activity occurs at the transcriptional level. […] As there is little LTB4 produced during a 24 hour LPS stimulation of whole blood, an additional LPS stimulation followed by fMLP challenge of human whole blood is necessary for LTB4 synthesis by activated neutrophils. Thus, by using the same blood sample, it is possible to evaluate the potency of a compound on two surrogate markers of PDE4 activity in the whole blood by the following procedure.
Fresh blood was collected in heparinized tubes by venipuncture from healthy human volunteers (male and female). These subjects had no apparent inflammatory conditions and had not taken any NSAIDs for at least 4 days prior to blood collection. 500 μL aliquots of blood were pre-incubated with either 2 μL of vehicle (DMSO) or 2 μL of test compound at varying concentrations for 15 minutes at 37° C. […]

As usually defined, the IC50 is the concentration at which inhibition is half-maximal. A lower IC50 goes with higher potency.

Molecule `CC(C)NC(=O)c1cn(-c2cccc(C#Cc3cccc(C(C)(C)O)n3)c2)c2ncccc2c1=O` [Example 28, N-Isopropyl-1-{3-[6-(1-hydroxy-1-methylethyl)-2-pyridinylethynyl]phenyl}-1,4-dihydro [1,8]naphthyridin-4-one-3-carboxamide] came in with an IC50 of 10 to 2400 nM.

Source of the values: patent US6743802B2, “Alkyne-aryl phosphodiesterase-4 inhibitors” (Merck Frosst Canada & Co., priority 2001, dated 2004).
